Measurements from PMC9025560, “A Comparison of Evans Blue and 4-(p-Iodophenyl)butyryl Albumin Binding Moieties on an Integrin αvβ6 Binding Peptide” (Pharmaceutics, 2022).

Tests used:
[1] = system: BxPC-3 xenograft tumors; experiment: Biodistribution in mice bearing BxPC-3 xenograft tumors; assay type: in vivo; conditions: for Fold increase in tumor accumulation over non-ABM [64Cu]Cu DOTA-αvβ6-BP: BxPC-3 tumor model
Procedure, shortened: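 Female athymic nu/nu mice bearing subcutaneous BxPC-3 (integrin αvβ6-positive) flank tumors 0.5–1 cm, given [^64Cu]-labelled peptides (3.7–5.55 MBq) i.v. via tail vein. Tissues taken at 4, 24, 48 and 72 h p.i. and γ-counted; decay-corrected uptake reported as % ID/g, mean ± SD.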

[2] = system: human serum protein; experiment: Human serum protein binding by ultrafiltration; assay type: in vitro ADME; conditions: for Binding to human serum protein: 37 °C, ultrafiltration; for Serum albumin binding: abstract, serum species not stated
Description: (§1) Serum protein binding of [^64Cu]1 and [^64Cu]2 was assessed following the previously reported method. Peptides [^64Cu]1 and [^64Cu]2 were evaluated by ultrafiltration using Centrifree Ultrafiltration devices (EMD) according to the manufacturer’s recommendations. Experiments were carried out in triplicate. The Centrifree Ultrafiltration devices were pretreated with PBS containing Tween 20 (5% v/v), followed by triplicate rinses with PBS. An aliquot of each peptide [^64Cu]1 or [^64Cu]2 in PBS (≤25 μL, 20–60 KBq) was thoroughly mixed with 0.5 mL of serum at 37 °C in a microfuge tube. The mixture was incubated at 37 °C for 5 min, and an aliquot (50 μL) was transferred to a tube for γ-counting. The remaining sample was transferred to a Centrifree Ultrafiltration device and centrifuged for 40 min at 1500 (RCF) at ambient temperature (20–24 °C). An aliquot (50 μL) of the filtrate was transferred to a tube for γ-counting. For each radiolabeled peptide, a blank was run using 0.5 mL PBS/Tween 20 (5% v/v) instead of serum (n = 3) to determine non-specific binding. Following γ-counting, the protein-bound radioactivity was calculated by subtracting the counts measured in the filtrate aliquot (i.e., not protein-bound) from the counts in the corresponding serum aliquot. The data are expressed as mean ± standard deviation of fraction of radioactivity bound to protein after subtraction of non-specific binding determined in the blank.

[3] = Stability in mouse serum at 37 °C; assay type: in vitro ADME; conditions: for remaining at 1 h / remaining at 4 h / remaining at 24 h: mouse, mouse serum, read-out: Stability in mouse serum, % intact
Description: For serum stability, mouse serum or human serum (0.5 mL, both purchased from Sigma-Aldrich) was combined with an aliquot of each of the peptides [^64Cu]1 and [^64Cu]2 (≤25 μL, 14.8–22.2 MBq) and incubated at 37 °C. At each time point (1, 4, and 24 h) an aliquot (50–200 μL) was taken, proteins precipitated with ethanol, and removed by pelleting at 1500 (RCF) for 4 min. The ethanol solution was diluted with water (1 mL) and analyzed by RP-HPLC as previously described.

[4] = system: mouse serum protein; experiment: Mouse serum protein binding by ultrafiltration; assay type: in vitro ADME; conditions: 37 °C
Description: as §1, with “For each radiolabeled peptide, a blank was run using 0.5 mL PBS/Tween 20 (5% v/v) instead of serum (n = 3) to determine non-specific binding.” left out

CC(C)C[C@H](NC(=O)[C@H](CC(=O)O)NC(=O)CNC(=O)[C@H](CCCNC(=N)N)NC(=O)[C@H](CC(C)C)NC(=O)[C@H](CC(N)=O)NC(=O)[C@@H]1CCCN1C(=O)[C@@H](NC(=O)[C@H](C)NC(=O)[C@H](CC(N)=O)NC(=O)CCOCCOCCOCCOCCOCCOCCOCCOCCOCCOCCOCCOCCOCCOCCOCCOCCOCCOCCOCCOCCOCCOCCOCCOCCOCCOCCOCCOCCNC(=O)[C@H](CCCCNC(=O)[C@H](CC(=O)O)NC(=O)CCCNC(=O)CCCc1ccc(I)cc1)NC(=O)CN1CCN(CC(=O)O)CCN(CC(=O)O)CCN(CC(=O)O)CC1)C(C)C)C(=O)N[C@@H](CCC(N)=O)C(=O)N[C@H](C(=O)N[C@@H](CC(C)C)C(=O)N[C@@H](C)C(=O)N[C@@H](CCC(N)=O)C(=O)N[C@@H](CCCNC(=N)N)C(=O)N[C@H](C(=O)N[C@@H](C)C(=O)N[C@@H](CCCNC(=N)N)C(=O)N[C@H](C(=O)NCCOCCOCCOCCOCCOCCOCCOCCOCCOCCOCCOCCOCCOCCOCCOCCOCCOCCOCCOCCOCCOCCOCCOCCOCCOCCOCCOCCOCCC(N)=O)[C@@H](C)O)C(C)C)C(C)C [[^64Cu]2, [^64Cu]Cu DOTA-IP-αvβ6-BP, metal not drawn]
Tumor-Blood ratio ([1]; 4 h p.i.): > 4/1 | Tumor-Kidney ratio ([1]; 4 h p.i.): 0.23 ± 0.02 | Tumor-Lg Intestines ratio ([1]; 4 h p.i.): 0.78 ± 0.10 | Tumor-Liver ratio ([1]; 4 h p.i.): 3.2–4.9 | Tumor-Muscle ratio ([1]; 4 h p.i.): > 8/1 | Tumor-Sm Intestines ratio ([1]; 4 h p.i.): 0.80 ± 0.07 | Tumor-Stomach ratio ([1]; 4 h p.i.): 0.43 ± 0.07 | BxPC-3 Tumor uptake ([1]; 4 h p.i., i.v.): > 7.5 % ID/g | Kidneys uptake ([1]; 4 h p.i., i.v.): 33.6 ± 5.4 % ID/g | Stomach uptake ([1]; 4 h p.i., i.v.): 18.1 ± 2.9 % ID/g | Tumor-Blood ratio ([1]; 4 h p.i., listed as [64Cu]2): 6.15 ± 0.47 | Tumor-Liver ratio ([1]; 4 h p.i., listed as [64Cu]2): 4.89 ± 0.63 | Tumor-Muscle ratio ([1]; 4 h p.i., listed as [64Cu]2): 8.16 ± 2.41 | Tumor-Blood ratio ([1]; 24 h p.i.): 21.86 ±5.94 | Tumor-Kidney ratio ([1]; 24 h p.i.): 0.20 ± 0.06 | Tumor-Lg Intestines ratio ([1]; 24 h p.i.): 0.81 ±0.24 | Tumor-Liver ratio ([1]; 24 h p.i.): 2.72 ± 0.62 | Tumor-Muscle ratio ([1]; 24 h p.i.): 5.87 ±2.04 | Tumor-Sm Intestines ratio ([1]; 24 h p.i.): 0.97 ±0.27 | Tumor-Stomach ratio ([1]; 24 h p.i.): 0.39 ±0.09 | Tumor-Blood ratio ([1]; 48 h p.i.): 22.11 ± 14.41 | Tumor-Kidney ratio ([1]; 48 h p.i.): 0.35 ± 0.14 | Tumor-Lg Intestines ratio ([1]; 48 h p.i.): 1.10 ± 0.47 | Tumor-Liver ratio ([1]; 48 h p.i.): 2.46 ± 0.97 | Tumor-Muscle ratio ([1]; 48 h p.i.): 6.68 ± 2.42 | Tumor-Sm Intestines ratio ([1]; 48 h p.i.): 1.81 ± 0.61 | Tumor-Stomach ratio ([1]; 48 h p.i.): 0.67 ± 0.27 | Tumor-Blood ratio ([1]; 72 h p.i.): 28.82 ± 2.64 | Tumor-Kidney ratio ([1]; 72 h p.i.): 0.44 ± 0.14 | Tumor-Lg Intestines ratio ([1]; 72 h p.i.): 1.63 ±0.32 | Tumor-Liver ratio ([1]; 72 h p.i.): 3.77 ± 0.72 | Tumor-Muscle ratio ([1]; 72 h p.i.): 6.70 ±1.74 | Tumor-Sm Intestines ratio ([1]; 72 h p.i.): 4.01 ±1.10 | Tumor-Stomach ratio ([1]; 72 h p.i.): 1.55 ±0.08 | Fold increase in tumor accumulation over non-ABM [64Cu]Cu DOTA-αvβ6-BP [1]: > 3 fold | Binding to human serum protein [2]: 63.3 ± 1.5% | Serum albumin binding [2]: 42–44% | Fold higher stability than [64Cu]1 in mouse serum ([3]; 24 h): 3.4 fold | remaining at 1 h [3]: 92% | remaining at 4 h [3]: 83% | remaining at 24 h ([3]; 24 h): 48% | Binding to mouse serum protein [4]: 44.0 ± 0.1%

Cc1cc(-c2ccc(NC(=O)CCC(=O)NCCCC[C@H](NC(=O)CN3CCN(CC(=O)O)CCN(CC(=O)O)CCN(CC(=O)O)CC3)C(=O)NCCOCCOCCOCCOCCOCCOCCOCCOCCOCCOCCOCCOCCOCCOCCOCCOCCOCCOCCOCCOCCOCCOCCOCCOCCOCCOCCOCCOCCC(=O)N[C@@H](CC(N)=O)C(=O)N[C@@H](C)C(=O)N[C@H](C(=O)N3CCC[C@H]3C(=O)N[C@@H](CC(N)=O)C(=O)N[C@@H](CC(C)C)C(=O)N[C@@H](CCCNC(=N)N)C(=O)NCC(=O)N[C@@H](CC(=O)O)C(=O)N[C@@H](CC(C)C)C(=O)N[C@@H](CCC(N)=O)C(=O)N[C@H](C(=O)N[C@@H](CC(C)C)C(=O)N[C@@H](C)C(=O)N[C@@H](CCC(N)=O)C(=O)N[C@@H](CCCNC(=N)N)C(=O)N[C@H](C(=O)N[C@@H](C)C(=O)N[C@@H](CCCNC(=N)N)C(=O)N[C@H](C(=O)NCCOCCOCCOCCOCCOCCOCCOCCOCCOCCOCCOCCOCCOCCOCCOCCOCCOCCOCCOCCOCCOCCOCCOCCOCCOCCOCCOCCOCCC(N)=O)[C@@H](C)O)C(C)C)C(C)C)C(C)C)c(C)c2)ccc1N=Nc1ccc2c(S(=O)(=O)O)cc(S(=O)(=O)O)c(N)c2c1O [[^64Cu]1, [^64Cu]Cu DOTA-EB-αvβ6-BP, metal not drawn]
Tumor-Blood ratio ([1]; 4 h p.i.): > 4/1 | Tumor-Kidney ratio ([1]; 4 h p.i.): 0.07 ± 0.003 | Tumor-Lg Intestines ratio ([1]; 4 h p.i.): 1.28 ± 0.12 | Tumor-Liver ratio ([1]; 4 h p.i.): 3.2–4.9 | Tumor-Muscle ratio ([1]; 4 h p.i.): > 8/1 | Tumor-Sm Intestines ratio ([1]; 4 h p.i.): 1.12 ± 0.05 | Tumor-Stomach ratio ([1]; 4 h p.i.): 0.83 ± 0.03 | Kidneys uptake ([1]; 4 h p.i., i.v.): 75.5 ± 7.3 % ID/g | Tumor-Blood ratio ([1]; 4 h p.i., listed as [64Cu]1): 4.30 ± 1.47 | Tumor-Liver ratio ([1]; 4 h p.i., listed as [64Cu]1): 3.24 ± 0.14 | Tumor-Muscle ratio ([1]; 4 h p.i., listed as [64Cu]1): 7.95 ± 0.55 | Tumor-Blood ratio ([1]; 24 h p.i.): 15.41 ±3.77 | Tumor-Kidney ratio ([1]; 24 h p.i.): 0.13 ± 0.06 | Tumor-Lg Intestines ratio ([1]; 24 h p.i.): 1.41 ±0.43 | Tumor-Liver ratio ([1]; 24 h p.i.): 2.39 ± 0.59 | Tumor-Muscle ratio ([1]; 24 h p.i.): 9.47 ±4.84 | Tumor-Sm Intestines ratio ([1]; 24 h p.i.): 1.75 ±0.52 | Tumor-Stomach ratio ([1]; 24 h p.i.): 1.19 ±0.02 | Tumor-Blood ratio ([1]; 48 h p.i.): 12.03± 1.44 | Tumor-Kidney ratio ([1]; 48 h p.i.): 0.15 ± 0.02 | Tumor-Lg Intestines ratio ([1]; 48 h p.i.): 1.51 ± 0.58 | Tumor-Liver ratio ([1]; 48 h p.i.): 1.51 ± 0.29 | Tumor-Muscle ratio ([1]; 48 h p.i.): 8.39 ± 3.59 | Tumor-Sm Intestines ratio ([1]; 48 h p.i.): 2.18 ± 0.91 | Tumor-Stomach ratio ([1]; 48 h p.i.): 1.41 ± 0.79 | Fold higher liver uptake than [64Cu]2 ([1]; 72 h): > 1.8 fold | Tumor-Blood ratio ([1]; 72 h p.i.): 10.07 ± 3.24 | Tumor-Kidney ratio ([1]; 72 h p.i.): 0.19 ± 0.08 | Tumor-Lg Intestines ratio ([1]; 72 h p.i.): 1.75 ±0.48 | Tumor-Liver ratio ([1]; 72 h p.i.): 1.47 ± 0.47 | Tumor-Muscle ratio ([1]; 72 h p.i.): 8.11 ±3.02 | Tumor-Sm Intestines ratio ([1]; 72 h p.i.): 2.43 ±0.45 | Tumor-Stomach ratio ([1]; 72 h p.i.): 1.65 ±0.32 | Kidneys uptake ([1]; 72 h p.i., i.v.): 20.0 ± 6.9 % ID/g | Fold increase in tumor accumulation over non-ABM [64Cu]Cu DOTA-αvβ6-BP [1]: > 3 fold | Fold higher kidney uptake than [64Cu]2 ([1]; for at least 48 h): > 1.7 fold | Binding to human serum protein [2]: 53.4 ± 0.9% | Serum albumin binding [2]: 53–63% | remaining at 1 h [3]: 78% | remaining at 4 h [3]: 58% | remaining at 24 h ([3]; 24 h): 14% | Binding to mouse serum protein [4]: 41.9 ± 1.1%
